Data reported in ChEMBL document CHEMBL6153104, “Discovery of the first potent ROR1 degrader for the treatment of non-small cell lung cancer” (Eur J Med Chem, 2025).

How the values were obtained:
Type in all cases: cell-based
[1] = target: T1, von Hippel-Lindau disease tumor suppressor/Inactive tyrosine-protein kinase transmembrane receptor ROR1 (Homo sapiens, UniProt P40337+Q01973); assay: PROTAC activity at VHL/ROR1 in human NCI-H23 cells assessed as induction of ROR1 degradation at 1 uM incubated for 24 hrs by Western blot analysis relative to control
[2] = target: T1, von Hippel-Lindau disease tumor suppressor/Inactive tyrosine-protein kinase transmembrane receptor ROR1; assay: PROTAC activity at VHL/ROR1 in human NCI-H23 cells assessed as induction of ROR1 degradation at 0.1 uM incubated for 24 hrs by Western blot analysis relative to control
[3] = target: T2, Protein cereblon/Inactive tyrosine-protein kinase transmembrane receptor ROR1 (Homo sapiens) (UniProt Q96SW2+Q01973); assay: PROTAC activity at CRBN/ROR1 in human NCI-H23 cells assessed as induction of ROR1 degradation at 0.1 uM incubated for 24 hrs by Western blot analysis relative to control
[4] = target: T2, Protein cereblon/Inactive tyrosine-protein kinase transmembrane receptor ROR1 (Homo sapiens); assay: PROTAC activity at CRBN/ROR1 in human NCI-H23 cells assessed as induction of ROR1 degradation at 1 uM incubated for 24 hrs by Western blot analysis relative to control

T1 sequence (P40337 whole entry): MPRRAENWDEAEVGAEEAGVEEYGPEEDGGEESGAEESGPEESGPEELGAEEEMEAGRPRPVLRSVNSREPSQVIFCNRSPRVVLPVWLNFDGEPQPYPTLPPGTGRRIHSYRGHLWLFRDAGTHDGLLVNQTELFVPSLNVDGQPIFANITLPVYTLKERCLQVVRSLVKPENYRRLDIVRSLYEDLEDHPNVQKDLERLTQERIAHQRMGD
T1 sequence (Q01973 30-937 partner limits assumed): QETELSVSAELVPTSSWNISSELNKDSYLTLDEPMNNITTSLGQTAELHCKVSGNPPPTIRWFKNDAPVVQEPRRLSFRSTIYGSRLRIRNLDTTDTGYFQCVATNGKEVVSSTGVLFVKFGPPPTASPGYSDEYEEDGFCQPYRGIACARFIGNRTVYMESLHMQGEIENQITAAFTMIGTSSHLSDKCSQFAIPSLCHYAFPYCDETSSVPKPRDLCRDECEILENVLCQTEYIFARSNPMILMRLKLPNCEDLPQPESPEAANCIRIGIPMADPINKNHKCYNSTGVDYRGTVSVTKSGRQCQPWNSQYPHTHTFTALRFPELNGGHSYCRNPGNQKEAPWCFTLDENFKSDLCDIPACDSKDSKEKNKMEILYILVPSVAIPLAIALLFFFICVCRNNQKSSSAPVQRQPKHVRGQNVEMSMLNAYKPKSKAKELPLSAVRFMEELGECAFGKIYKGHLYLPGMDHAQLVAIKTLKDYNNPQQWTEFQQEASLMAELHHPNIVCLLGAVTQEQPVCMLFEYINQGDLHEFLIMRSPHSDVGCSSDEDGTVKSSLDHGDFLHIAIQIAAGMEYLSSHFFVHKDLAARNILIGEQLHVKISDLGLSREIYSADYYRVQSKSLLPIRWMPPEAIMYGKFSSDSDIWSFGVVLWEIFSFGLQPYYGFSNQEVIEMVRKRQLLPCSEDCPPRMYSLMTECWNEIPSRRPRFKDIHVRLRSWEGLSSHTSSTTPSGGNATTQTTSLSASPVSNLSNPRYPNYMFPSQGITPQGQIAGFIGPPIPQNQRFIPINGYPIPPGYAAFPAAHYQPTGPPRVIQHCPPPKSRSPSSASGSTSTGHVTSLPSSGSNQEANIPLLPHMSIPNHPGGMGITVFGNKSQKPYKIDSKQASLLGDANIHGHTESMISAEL
T2 sequence (Q01973 whole entry, looked up): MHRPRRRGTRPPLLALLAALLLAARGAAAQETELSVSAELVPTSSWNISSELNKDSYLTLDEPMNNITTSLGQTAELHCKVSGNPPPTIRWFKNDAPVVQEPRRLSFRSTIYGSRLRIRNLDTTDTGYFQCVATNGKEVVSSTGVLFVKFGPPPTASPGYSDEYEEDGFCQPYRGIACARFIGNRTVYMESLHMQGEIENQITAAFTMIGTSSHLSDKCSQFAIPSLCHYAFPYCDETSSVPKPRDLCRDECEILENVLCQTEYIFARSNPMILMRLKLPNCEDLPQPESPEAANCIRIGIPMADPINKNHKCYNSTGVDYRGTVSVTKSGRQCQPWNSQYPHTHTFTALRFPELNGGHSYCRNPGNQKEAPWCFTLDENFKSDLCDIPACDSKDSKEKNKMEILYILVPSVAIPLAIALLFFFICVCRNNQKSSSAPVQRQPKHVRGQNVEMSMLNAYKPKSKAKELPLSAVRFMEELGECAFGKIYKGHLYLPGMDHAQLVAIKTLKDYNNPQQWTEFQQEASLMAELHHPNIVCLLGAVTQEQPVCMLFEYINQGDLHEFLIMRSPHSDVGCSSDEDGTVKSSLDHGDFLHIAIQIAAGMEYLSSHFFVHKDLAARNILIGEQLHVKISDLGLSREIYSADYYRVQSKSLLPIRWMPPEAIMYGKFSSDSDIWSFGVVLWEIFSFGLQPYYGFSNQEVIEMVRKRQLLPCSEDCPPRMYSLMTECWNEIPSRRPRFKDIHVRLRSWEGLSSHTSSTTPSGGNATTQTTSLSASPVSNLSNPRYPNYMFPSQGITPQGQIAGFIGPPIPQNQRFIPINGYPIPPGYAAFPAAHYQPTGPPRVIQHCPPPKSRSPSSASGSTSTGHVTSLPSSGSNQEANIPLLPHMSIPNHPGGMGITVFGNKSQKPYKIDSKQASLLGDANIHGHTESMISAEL
T2 sequence (Q96SW2 whole entry, looked up): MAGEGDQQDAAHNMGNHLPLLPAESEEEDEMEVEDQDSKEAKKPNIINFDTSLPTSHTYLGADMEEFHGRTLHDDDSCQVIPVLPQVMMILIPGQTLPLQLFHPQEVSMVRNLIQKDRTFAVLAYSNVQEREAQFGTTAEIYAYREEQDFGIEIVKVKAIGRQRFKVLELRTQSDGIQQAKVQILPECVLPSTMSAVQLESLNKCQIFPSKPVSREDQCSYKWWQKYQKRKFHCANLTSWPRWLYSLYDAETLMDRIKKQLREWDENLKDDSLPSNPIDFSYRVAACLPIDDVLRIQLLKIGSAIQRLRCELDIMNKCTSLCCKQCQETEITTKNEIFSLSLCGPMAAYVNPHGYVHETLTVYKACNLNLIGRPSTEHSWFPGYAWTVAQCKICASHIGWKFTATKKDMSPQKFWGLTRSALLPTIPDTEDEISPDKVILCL

Row | Structure (SMILES) | Activity [1] [%] | Activity [2] [%] | Activity [3] [%] | Activity [4] [%]
1 | CCN1CCC(Nc2c(Br)cnc3[nH]c(-c4ccc(N5CCN(CCCCCC(=O)N[C@H](C(=O)N6C[C@H](O)C[C@H]6C(=O)NCc6ccc(-c7scnc7C)cc6)C(C)(C)C)CC5)cc4)nc23)CC1 | 78.5 | 29.3 |  | 
2 | CCN1CCC(Nc2c(Br)cnc3[nH]c(-c4ccc(N5CCN(CCCC(=O)N[C@H](C(=O)N6C[C@H](O)C[C@H]6C(=O)NCc6ccc(-c7scnc7C)cc6)C(C)(C)C)CC5)cc4)nc23)CC1 | 23.6 | 22.6 |  | 
3 | CCN1CCC(Nc2c(Br)cnc3[nH]c(-c4ccc(N5CCN(C(=O)CCCCC(=O)N[C@H](C(=O)N6C[C@H](O)C[C@H]6C(=O)NCc6ccc(-c7scnc7C)cc6)C(C)(C)C)CC5)cc4)nc23)CC1 | 35.3 | 12.9 |  | 
4 | CCN1CCC(Nc2c(Br)cnc3[nH]c(-c4ccc(N5CCN(C(=O)CCCCCCC(=O)N[C@H](C(=O)N6C[C@H](O)C[C@H]6C(=O)NCc6ccc(-c7scnc7C)cc6)C(C)(C)C)CC5)cc4)nc23)CC1 | 84.1 | 36.5 |  | 
5 | CCN1CCC(Nc2c(Br)cnc3[nH]c(-c4ccc(N5CCN(C(=O)CNc6cccc7c6C(=O)N(C6CCC(=O)NC6=O)C7=O)CC5)cc4)nc23)CC1 (stereo not drawn) |  |  | 0 | 83.3
6 | CCN1CCC(Nc2c(Br)cnc3[nH]c(-c4ccc(N5CCN(C(=O)CCC(=O)N[C@H](C(=O)N6C[C@H](O)C[C@H]6C(=O)NCc6ccc(-c7scnc7C)cc6)C(C)(C)C)CC5)cc4)nc23)CC1 | 85.8 | 32.5 |  | 
7 | CCN1CCC(Nc2c(Br)cnc3[nH]c(-c4ccc(N5CCN(C(=O)COc6cccc7c6C(=O)N(C6CCC(=O)NC6=O)C7=O)CC5)cc4)nc23)CC1 (stereo not drawn) |  |  | 38 | 88.9
8 | CCN1CCC(Nc2c(Br)cnc3[nH]c(-c4ccc(N5CCN(C(=O)CCCCCCCOc6cccc7c6C(=O)N(C6CCC(=O)NC6=O)C7=O)CC5)cc4)nc23)CC1 (stereo not drawn) |  |  | 9.5 | 0

Continued, values first:

Row | Activity [1] [%] | Activity [2] [%] | Activity [3] [%] | Activity [4] [%] | Structure (SMILES)
9 | 46.2 | 10.2 |  |  | CCN1CCC(Nc2c(Br)cnc3[nH]c(-c4ccc(N5CCN(CC(=O)N[C@H](C(=O)N6C[C@H](O)C[C@H]6C(=O)NCc6ccc(-c7scnc7C)cc6)C(C)(C)C)CC5)cc4)nc23)CC1
10 | 88.4 | 28.1 |  |  | CCN1CCC(Nc2c(Br)cnc3[nH]c(-c4ccc(N5CCN(CCCCCCCCCC(=O)N[C@H](C(=O)N6C[C@H](O)C[C@H]6C(=O)NCc6ccc(-c7scnc7C)cc6)C(C)(C)C)CC5)cc4)nc23)CC1
11 |  |  | 38.7 | 99.6 | CCN1CCC(Nc2c(Br)cnc3[nH]c(-c4ccc(N5CCN(C(=O)CCCCCCCCCOc6cccc7c6C(=O)N(C6CCC(=O)NC6=O)C7=O)CC5)cc4)nc23)CC1 (stereo not drawn)
12 |  |  | 0 | 87.3 | CCN1CCC(Nc2c(Br)cnc3[nH]c(-c4ccc(N5CCN(C(=O)CCCOc6ccc7c(c6)C(=O)N(C6CCC(=O)NC6=O)C7=O)CC5)cc4)nc23)CC1 (stereo not drawn)
13 |  |  | 1.6 | 0 | CCN1CCC(Nc2c(Br)cnc3[nH]c(-c4ccc(N5CCN(C(=O)CCCCCCCCCNc6ccc7c(c6)C(=O)N(C6CCC(=O)NC6=O)C7=O)CC5)cc4)nc23)CC1 (stereo not drawn)
14 |  |  | 11.1 | 89.6 | CCN1CCC(Nc2c(Br)cnc3[nH]c(-c4ccc(N5CCN(CCOCCOCCNc6cccc7c6C(=O)N(C6CCC(=O)NC6=O)C7=O)CC5)cc4)nc23)CC1 (stereo not drawn)
15 |  |  | 0.8 | 71 | CCN1CCC(Nc2c(Br)cnc3[nH]c(-c4ccc(N5CCN(C(=O)CNc6ccc7c(c6)C(=O)N(C6CCC(=O)NC6=O)C7=O)CC5)cc4)nc23)CC1 (stereo not drawn)
16 |  |  | 35.5 | 87.2 | CCN1CCC(Nc2c(Br)cnc3[nH]c(-c4ccc(N5CCN(C(=O)CCCCCNc6ccc7c(c6)C(=O)N(C6CCC(=O)NC6=O)C7=O)CC5)cc4)nc23)CC1 (stereo not drawn)
17 |  |  | 30.4 | 93.8 | CCN1CCC(Nc2c(Br)cnc3[nH]c(-c4ccc(N5CCN(CCOCCOCCOCCNc6cccc7c6C(=O)N(C6CCC(=O)NC6=O)C7=O)CC5)cc4)nc23)CC1 (stereo not drawn)
18 | 99.7 | 85.1 |  |  | CCN1CCC(Nc2c(Br)cnc3[nH]c(-c4ccc(N5CCN(C(=O)CCCCCCCCCCC(=O)N[C@H](C(=O)N6C[C@H](O)C[C@H]6C(=O)NCc6ccc(-c7scnc7C)cc6)C(C)(C)C)CC5)cc4)nc23)CC1
19 | 99.6 | 52.5 |  |  | CCN1CCC(Nc2c(Br)cnc3[nH]c(-c4ccc(N5CCN(CCCCCCCC(=O)N[C@H](C(=O)N6C[C@H](O)C[C@H]6C(=O)NCc6ccc(-c7scnc7C)cc6)C(C)(C)C)CC5)cc4)nc23)CC1
